Test results from patent US20260076937A1, “COMPOSITION FOR PREVENTING OR TREATING AUTOIMMUNE DISEASES COMPRISING A BCAT1 INHIBITOR” (Seoul National University R&DB Foundation, priority 2024, published 2026).
Entries after “also recorded” stand apart in the source; their conditions may differ.

Experiments:
[1] = test system: human CD4+ memory T cells; assay: Cholesterol analysis in cell lysates; type: cell-based; settings: TCR stimulation 3 days; Bi2 10 μM, statin 10 μM
Description: Total cholesterol amount in cultured cells was determined using a fluorometric Amplex™ Red Cholesterol Assay Kit (Thermo Fisher Scientific) according to the manufacturer's instructions.

mTORC1 = assay: Phospho-p70-S6K immunoblot (mTORC1 activity) in CD4+ memory T cells; type: cell-based, human; settings: about 1-2 hours after stimulation
Description: (§1) Cells were cultured in radioimmunoprecipitation assay (RIPA) buffer (150 mM NaCl, 10 mM Na2HPO4, pH 7.2, 1% Nonidet P-40, 0.5% deoxycholate) containing phenylmethylsulfonyl fluoride (PMSF; Millipore Sigma, Burlington, MA), EDTA, protease and phosphatase inhibitor cocktail (Thermo Fisher Scientific) to extract total protein. Proteins were separated on 8-10% SDS-polyacrylamide gels and blotted onto polyvinylidene difluoride (PVDF) membranes (Bio-Rad, Hercules, CA) followed by 5% BSA in Tris buffered saline (TBS) with 0.1% Tween 20 and blocked for 1 hour. Membranes were cultured overnight with anti-human SLC7A5, anti-BCAT, anti-phospho-p70S6K, anti-p70S6K, anti-HIF-1α (all provided by Cell Signaling Technology, Danvers, MA) primary antibodies at 4° C., followed by culture with HRP-conjugated secondary antibodies for 1 hour at room temperature. Membranes were developed using SuperSignal West Femto Maximum Sensitivity Substrate or SuperSignal West Pico PLUS Chemiluminescent Substrate system (Thermo Fisher Scientific).

mouse CD4+ naive T cells = assay: Th17/Th1 polarization of mouse CD4+ naive T cells from iLN; type: cell-based; settings: Bi2 10 μM
Description: (§2) Blocking BCAT1 with Bi2 attenuates Th17 differentiation in mice. In FIG. 13A mRNA expression of slc7a5 and bcat1 in mouse inguinal LN (iLN) cells was analyzed by RT-qPCR at 24 hours after TCR stimulation with anti-CD3/CD28 antibody (n=5). In FIG. 13B protein expression of BCAT1 in mouse inguinal LN cells was analyzed at 24 hours after stimulation of TCR with anti-CD3/CD28 antibody (n=5). In FIGS. 13C to 13D, mouse CD4^+ naive T cells derived from iLN were differentiated under […] or Th1 polarization conditions for 5 days in the presence of Bi2 (10 μM). The amounts of IFN-γ (c) and IL-17A (d) in the culture supernatants of Th1 and Th17 cells (n=5) are shown. In FIG. 13E, the cells of mouse iLN were stimulated with anti CD3/CD28 antibody in the presence of Bi2 (10 μM) for 24 hours. Cell lysates were immunoblotted for HIF-1α (n=3 independent experiments). Cells treated with COCl2 served as a positive control for HIF-1α. […] FIG. 13F is a representative histogram plot of intracellular HIF-1α in cells of mouse iLN. Cells were stimulated with anti CD3/CD28 antibody in the presence of Bi2 (10 μM) for 24 hours. […] The significance was indicated as *=p<0.05, **=p<0.01, ***=p<0.001, according to Mann-Whitney U test (a, c, d, f) or the two-tailed non-pair t test (b, e)).

[2] = test system: TCR-stimulated human CD4+ naive T cells; assay: Cytokine ELISA of culture supernatants, CD4+ naive T cells; type: cell-based; settings: TCR stimulation 3 days
HIF-1α [3] = assay: HIF-1α immunoblot in TCR-stimulated CD4+ memory T cells; type: cell-based, human; settings: TCR-stimulated CD4+ memory T cells; Bi2 10 μM, CoCl2 100 μM, VH298 100 μM, MG132 5 μM
Description: as §1

HIF-1α [4] = assay: RT-qPCR of HIF-1α and HIF-1α target genes in CD4+ memory T cells; type: cell-based, human
Description: Total RNA was prepared using TRIzol reagent (Life Technologies, Grand Island, NY), followed by cDNA synthesis (Promega, Madison, WI), followed by real-time quantitative RT-PCR with a CFX system (Bio-Rad, Hercules, CA) using SensiFAST SYBR® Lo-ROX (Bioline, London. UK). Gene expression levels were normalized for […] expression using the comparative CT method (ΔΔCT).

SKG mice = assay: Curdlan-induced arthritis in SKG mice; type: in vivo, mouse
Description: Eight-week-old female SKG mice used for induction of autoimmune arthritis [e.g., Rheumatoid Arthritis (RA)] were purchased from CLEA Japan (Tokyo, Japan). All mice were bred and managed in a sterile facility at Seoul National University School of Medicine. All experiments were approved by Seoul National University Institutional Animal Experimentation Ethics Committee (IACUC) (approval number: SNU-230825-2-2). At 8 weeks of age, 3 mg/mice curdlan (Wako, Japan) in 300 μl sterile PBS was injected intraperitoneally (i.p.) into mice. Ankle thickness was measured using calipers (Manostat, New York, NY). […] 0 point: no joint swelling; 0.1 point: single finger joint swelling; 0.5 point: minor swelling of wrist, ankle or tail base; 1.0 point: severe swelling of […], […] or tail base. Scores for all joints of each mouse were summed. Mice were euthanized at the end of the experiment and immune cells were extracted from inguinal lymph nodes (inguinal LNs) and joint cells.

HIF-1α [5] = assay: HIF-1α expression in TCR-stimulated mouse iLN cells; type: cell-based; settings: Bi2 10 μM, 24 hours
Description: as §2

[6] = Bi2 i.p. twice a week for 3 weeks

**Q.** With `O=C(NNS(=O)(=O)c1ccccc1C(F)(F)F)c1cc2cc(Cl)ccc2o1` [Bi2, BCATc inhibitor 2] as the compound, how does the intracellular cholesterol [1] read?
**A.** slight increase; also recorded: significantly increased

**Q.** What about the S6K phosphorylation (mTORC1) of the same compound?
**A.** inhibitory effect

**Q.** What about the IFN-γ production (mouse CD4+ naive T cells; Th1 polarization 5 days) of the same compound?
**A.** failed to inhibit

**Q.** And the “differentiation of Th17 cells (IL-17A)” value (mouse CD4+ naive T cells; Th17 polarization 5 days)?
**A.** preferentially inhibited; also recorded: attenuates

**Q.** What about the “IL-2 production by CD4+ naive T cells” value [2] of the same compound?
**A.** not affected

**Q.** And the HIF-1α protein expression (HIF-1α [3])?
**A.** significantly inhibited

**Q.** And the “HIF-1α mRNA expression” value (HIF-1α [4]; 4 hours after TCR stimulation)?
**A.** reduced

**Q.** What about the “expression of SCL2A1, LDHA and PGK1 mRNA (HIF-1α target genes)” value (HIF-1α [4]; 72 hours of TCR stimulation) of the same compound?
**A.** reduced

**Q.** What about the “ifng, tgfb1 expression in synovial cells” value (SKG mice; [6]) of the same compound?
**A.** significantly reduced

**Q.** And the “ratio of Th17 cells in CD3+CD4+ T cells in inguinal lymph nodes” value (SKG mice; [6])?
**A.** significantly reduced

**Q.** And the arthritis score (SKG mice; Bi2 i.p. twice a week for 3 weeks after curdlan)?
**A.** significantly lower; also recorded: alleviates

**Q.** What about the “TCR-induced HIF-1α expression in mouse LN T cells” value (HIF-1α [5]) of the same compound?
**A.** reduced
